For data set [1] the following is noted: cited from earlier work; for nature (neutral, anionic, apolar) at physiological pH: 7 or close to 7.
The subject of data set [2] is cells of pig proximal tubular epithelium in primary culture.
Data set [3] deals with primary cultures of proximal tubular cells (PTCs). Briefly: Cell growth dynamics in primary culture of proximal tubular cells.
Data set [4] concerns cultures of cells of the proximal tubular epithelium. Briefly: Scanning electron microscopy of cell morphology. The following applies: 11 days; cyclosporin A 1 μg/mL without or with cilastatin 200 μg/mL.
For data set [5], the system named is CD3+ lymphocytes (human T cells). The note with it: cyclosporin A at different doses. Here is the method:
The sample was centrifuged at 120 g and was resuspended in 750 μL of RPMI medium (in the absence of FCS: fetal calf serum) to quantify the number of cells available using trypan blue. One hundred thousand cells per point were distributed.
Incubation was performed for 4 hours at 37° C. Cells were centrifuged for 6 minutes at 1200 rpm. The precipitate was resuspended in 100 μL of buffer (10 mmol/L HEPES, 150 mmol/L NaCl, 5 mmol/L KCl, 1 mmol/L Mg Cl2, 1.8 mmol/L CaCl2) and 5 μL of annexin-V. It was incubated in the dark for 10 minutes.
Intensity of green fluorescence of cells was quantified as displacement in the logarithmic scale from control (cells growing in 10% FCS) versus the number of cells analyzed. Cell debris was excluded from the analysis.

A further data set concerns rabbits. The note with it: rabbit, in vivo; cited from earlier work.

Where two headings read alike, the source gives them in different places.

Turning to `C[C@H](O)C(=O)Nc1c(I)c(C(=O)NC(CO)CO)c(I)c(C(=O)NC(CO)CO)c1I` [Iopamidol], in data set [1] (in words), the “SOLUBILITY IN ORGANIC MEDIA” value was “soluble in methanol insoluble” and the “SOLUBILITY IN WATER” value was “soluble in water”. Besides, in data set [1], the “nature (neutral, anionic, apolar) at physiological pH” value (“nature … at physiological pH” for short) is listed as “anionic”.
Turning to `OC[C@@H](O)[C@@H](O)[C@H](O)[C@H](O)CO` [Mannitol], the “SOLUBILITY IN WATER” value in data set [1] is “(1 g/5.5 mL)”; in data set [1] (in words) it was “soluble in water”. The “nature … at physiological pH” value in data set [1] is on record as “anionic”.
In the case of `CCCCC[C@@H](O)[C@H]1C(=O)O[C@H](C)[C@@H](O)/C=C/C=C/C=C/C=C/C=C(\C)[C@@H](O)C[C@H](O)C[C@H](O)C[C@H](O)C[C@H](O)C[C@H](O)C[C@@H]1O` [filipin], in data set [2], the cell death entry is given as “causes cell death in a short time”. Besides, in data set [2] ([…], cilastatin 200 μg/mL or filipin 50 μg/mL, pre-incubated 20 minutes), the “internalization of fluorescent toxin B labeled caveolae from cell membrane to Golgi apparatus” value was “prevents their internalization”.
As to Gentamicin, in data set [1], the “nature … at physiological pH” value is on record as “neutral”.
As for `O=C(O)P(=O)(O)O` [Foscarnet, phosphonoformic acid], in data set [1] (in words), the “SOLUBILITY IN ORGANIC MEDIA” value was “insoluble” and the “SOLUBILITY IN WATER” value is listed as “soluble in water”. Also, the “nature … at physiological pH” value in data set [1] is “anionic”.
As to `C=CC[C@@H]1/C=C(\C)C[C@H](C)C[C@H](OC)[C@H]2O[C@@](O)(C(=O)C(=O)N3CCCC[C@H]3C(=O)O[C@H](/C(C)=C/[C@@H]3CC[C@@H](O)[C@H](OC)C3)[C@H](C)[C@@H](O)CC1=O)[C@H](C)C[C@@H]2OC.O` [Tacrolimus], in data set [1] (in words), the “SOLUBILITY IN ORGANIC MEDIA” value is reported as “high” and the “SOLUBILITY IN WATER” value was “insoluble”. For the same compound, the “nature … at physiological pH” value in data set [1] was “apolar”. Besides, the “cell growth in the presence of the nephrotoxic” value in data set [3] (from the time of seeding, cyclosporin A 1 or 10 μg/mL, tacrolimus 50 ng/mL) is on record as “dose-dependently reduced”. Also, the “day of culture from which cell growth is significantly decreased compared to control” value in data set [3] (post hoc analysis, cyclosporin 1 μg/mL and 10 μg/mL, tacrolimus (FK-506)) was not below 7 days.
Regarding `N.N.[Cl][Pt][Cl]` [Cisplatin, cis-diaminodychloroplatin II], the “nature … at physiological pH” value in data set [1] is “neutral”.
Take `ClC(Cl)Cl` [Chloroform, CHCl3]: the “nature … at physiological pH” value in data set [1] was “apolar”.
Take Cyclosporin A: in data set [4], the “cell morphology by scanning electron microscopy” value is “causes cytosolic condensation, cell rupture, and monolayer disruption”. Moreover, in data set [5], the “percent cell death of human T cells” value was “dose-response effect of the lethal effect”.
With `C[C@@H](O)[C@H]1C(=O)N2C(C(=O)O)=C(SCCN=CN)C[C@H]12` [imipenem], the tubular toxicity entry in the data set with rabbits was “may cause tubular toxicity”.
Regarding `CN[C@H](CC(C)C)C(=O)NC1C(=O)N[C@@H](CC(N)=O)C(=O)N[C@H]2C(=O)N[C@H]3C(=O)N[C@H](C(=O)N[C@@H](C(=O)O)c4cc(O)cc(O)c4-c4cc3ccc4O)[C@H](O)c3ccc(c(Cl)c3)Oc3cc2cc(c3OC2O[C@@H](CO)[C@@H](O)[C@H](O)[C@@H]2O[C@@H]2C[C@](C)(N)[C@H](O)[C@@H](C)O2)Oc2ccc(cc2Cl)[C@H]1O` (stereo partly drawn) [Vancomycin], the “SOLUBILITY IN WATER” value in data set [1] (in words) is recorded as “water-soluble”; in data set [1] (in words, listed as VANCOMYCIN), “high”.
Regarding `CC(=O)Nc1ccc(O)cc1` [Acetaminophen, N-(4-hydroxyphenyl)ethanamide], the “SOLUBILITY IN WATER” value in data set [1] (in words) is reported as “moderately soluble in”. The “SOLUBILITY IN ORGANIC MEDIA” value is “soluble in ethanol and acetone” in data set [1] (in words, in ethanol and acetone); “insoluble in serum” in data set [1] (in words, in serum). Besides, the “nature … at physiological pH” value in data set [1] was “neutral”.
Turning to `C[C@@H]1[C@H](O)[C@@H](C)/C=C/C=C/C=C/C=C/C=C/C=C/C=C/[C@H](O[C@@H]2O[C@H](C)[C@@H](O)[C@H](N)[C@@H]2O)C[C@@H]2O[C@](O)(C[C@@H](O)C[C@@H](O)[C@H](O)CC[C@@H](O)C[C@@H](O)CC(=O)O[C@H]1C)C[C@H](O)[C@H]2C(=O)O` [Amphotericin B], the “SOLUBILITY IN ORGANIC MEDIA” value in data set [1] (DMF + HCl) was “DMF + HCl (60-80 mg/mL)”; in data set [1] (DMF), “soluble in DMF (2-4 mg/mL),”; in data set [1] (DMSO) it was “DMSO (30-40 mg/mL)”. Moreover, the “nature … at physiological pH” value in data set [1] was “anionic”. The “SOLUBILITY IN WATER” value in data set [1] (water at pH 2 or pH 11) is reported as 11 (0.1 mg/mL).

The values are drawn from patent US9522128B2 (FUNDACION PARA LA INVESTIGACION BIOMEDICA DEL HOSPITAL …, priority 2008, dated 2016).
